Format in all cases: cell-based, human
One test has as its system Huh7 cells. Description: MTT cytotoxicity assay on Huh7 cells. As to conditions: for % Death Rate at 100 p.p.m (μg/mL) Huh7: 48 h; for IC50: Homo sapiens, Huh-7, 48 h. The procedure: MTT-based cell viability assay was carried out to evaluate the antiproliferation potential of the target compounds on HCC cell lines (HepG2 and Huh7). The half maximal inhibitory concentration (IC50) values were calculated against DMSO non-treated HepG2 cells (negative control) and Dox-treated HepG2 cells (positive control). The assay was conducted using 3-(4, 5-di-MethylThiazol-2-yl)-2,5-diphenyl Tetrazolium bromide (MTT) to test cell viability, according to the method described by Mosmann with minor changes. The yellow MTT is reduced in the viable cells to purple formazan. The insoluble formazan is solubilized by DMSO to colored solution measured spectrophotometrically. Briefly, cells were seeded in a 96-well plate at density of 1 × 10^4 cells/well for 24 h in 5% CO2 incubator at 37 °C to allow their adherence. […] After incubation, 20 μL of a 5 mg/mL MTT solution were mixed with the contents of each well, and the plate was incubated for another 4 h. Then, the medium was suctioned, and the wells were washed with PBS. After 2 h of drying, 200 μL of DMSO was added to each well. The plate was set on a shaker to dissolve the formazan crystals. Then, the absorbance was measured spectrophotometrically at 570 nm with a reference wavelength of 630 nm using ELX800 UV universal microplate reader (BioTek Instruments Inc., VT, Santa Clara, CA, USA).
All experiment conditions were tested in three replicates. The % cell viability was calculated from the following equation: (mean absorbance of treated sample/mean absorbance of negative control sample) × 100. The % death rate = 100 -% cell viability, and the inhibitory concentration of 50% (IC50) was measured from the exponential curve of viability against concentration (dose–response curve).
A general note: Formazan colour is commonly taken as a measure of viable cells.

Test [1] concerns HepG2 cells. Description: Cell cycle analysis by flow cytometry (PI staining). As to conditions: for %Cell Cycle Arrest/Phase %G0-G1 / %Cell Cycle Arrest/Phase %G2-M / %Cell Cycle Arrest/Phase %S / %Cell Cycle Arrest/Phase %pre-G1: HepG2, 5 µM, 48 h; for G2-M arrest, fold higher compared to the negative control: HepG2, negative control 7.1%. The procedure:
In 6-well plate, HepG2 (1 × 10^5 cells per well) were treated with either (0.1% DMSO) vehicle or 5 μM of 3a, 4b, and 4c compounds. After 48 h incubation, cells were harvested and fixed for 12 h using ice-cold 70% ethanol at 4 °C. Ethanol was removed and cells were washed by PBS and incubated for 30 min at 37 °C in 0.5 mL of PBS containing 1 mg/mL RNase. Then, cells were stained for 30 min with PI in the dark and the DNA content was determined using flow cytometer.
(In flow cytometry, cells or beads pass a laser one at a time.)

The subject of test [2] is HepG2 cells. Description: Annexin V/FITC-PI apoptosis assay. As to conditions: for %Cell Death Early Apoptosis / %Cell Death Late Apoptosis / %Cell Death Total Apoptosis / Necrosis: HepG2, IC50 of the compound, 24 h (method says 48 h). How it is done:
Annexin V/PI double staining kit (eBiosciencesDx) was used to detect apoptotic activity of the selected isatin sulfonamide derivatives. The Annexin V corresponding signal provides a very sensitive marker for cellular apoptosis, while PI was used to detect necrotic or late apoptotic cells, identified by the loss of plasma integrity and loss of nuclear membranes.
Briefly, 1 × 10^5 cells/mL of HepG2 cells were seeded into a 6-well plate and incubated at 37 °C, 5% CO2, overnight. […] After time elapsed, trypsinization of cells was carried out. Washing was done by PBS once, followed by fixation using 70% ethanol. Fixed cells were stored at 4 °C for 2 h, then centrifuged at 500× g for 5 min. Again, cells were washed with PBS prior to staining. An amount of 200 μL of the staining solution (annexin V- fluorescein 5-isothiocyanate (FITC) and PI in binding buffer (10 mM HEPES, 140 mM NaCl, and 2.5 mM CaCl2 at pH 7.4)) were added to the cell suspension and incubated at 37 °C for 20 to 30 min in dark and analyzed with a fluorescence-activated cell sorter (FACS) (BD FACSCalibur, BD Biosciences, California, USA). Data were analyzed using ModFit LT v2.0 (Verity Software House, Topsham, Maine, USA).
These plots were divided into four regions corresponding to: • (1) Viable cells, which are negative to both probes (PI/FITC −/−), • (2) Apoptotic cells, which are PI negative and Annexin positive (PI/FITC −/+), • (3) Late apoptotic cells, which are both PI and Annexin positive (PI/FITC +/+), • (4) Necrotic cells, which are PI positive and Annexin negative (PI/FITC+/−).

For test [3], the system named is urokinase Plasminogen Activator (uPA). Description: uPA level in HepG2 cell lysate (ELISA). Particulars: HepG2 treated at IC50, 48 h. The procedure: (§1) As previously described, with little modification, HepG2 cells were cultured in T25 flask until they reached 30% confluency. […] After treatment, cells were washed by PBS, trypsinized and centrifuged at 10,000 rpm. The formed pellets were washed twice with PBS and lysed in 1 mL ice-cold radio immunoprecipitation assay (RIPA) lysis buffer (50 mM Tris-HCl, pH 8.0, 150 mM NaCl, 1% Triton X-100, 0.5% sodium deoxycholate, 0.1% sodium dodecyl sulfate) and kept on ice for 20 min. Then, the mixture was centrifuged at 15,000 rpm for 15 min to remove any cell debris. The cell lysate was aliquoted and stored at −80 °C for determination of protein using Pierce BCA Protein Assay Kit (Thermo Fisher Scientific, Waltham/Boston, USA) according to manufacturer’s recommendations and determination of other biochemical parameters including EGFR, urokinase Plasminogen Activator (uPA), B-Cell Lymphoma-2 (Bcl-2), heparanase, and oxidative stress markers (glutathione; GSH and malonaldehyde; MDA).
(§2) Levels of EGFR [37] and heparanase in cell lysate were investigated using commercially available enzyme-linked immunosorbent assay (ELISA) kits supplied by Abcam (Cat. No. ab269558, ab256401, respectively). Levels of uPA [39] were measured using ELISA kit supplied by Creative Diagnostics (New York, USA, Cat. No. DEIA1630). Bcl-2 levels were determined using ELISA kit supplied by Zymed Laboratories, Carlsbad, California (Cat. No. 99-0042). Briefly, standards and samples were added to corresponding 96-well plate coated with suitable antibody. After the washing step, biotinylated anti-human antibody was added to each well. After washing away unbound biotinylated antibody, horseradish peroxidase (HRP)-conjugated streptavidin was pipetted into each well. A peroxidase substrate solution was added to all wells, after washing, and the color developed was proportionate to the amount of EGFR bound. Finally, the stop solution was added and the color intensity was measured at 450 nm.

In the next test the test system is heparanase. Description: Heparanase level in HepG2 cell lysate (ELISA). As to conditions: HepG2 treated at IC50, 48 h. The procedure: as §1, §2
In general terms: ELISA stands for enzyme-linked immunosorbent assay.

The next test has as its system malonaldehyde (MDA). Description: MDA level in HepG2 cell lysate (TBA method). Particulars: HepG2 treated at IC50, 48 h. How it is done:
as §1
Levels of MDA, the marker of lipid peroxidation, were measured by thiobarbituric acid (TBA) method. TBA reacts with MDA in an acidic medium at temperature of 95 °C for 30 min to form colored thiobarbituric acid reactive (TBAR) product, the absorbance of which was measured at 534 nm. The MDA kit was purchased from Biodiagnostics, Cairo, Egypt.

This note sets out measurements from PMC8945686, “Anticancer Effects with Molecular Docking Confirmation of Newly Synthesized Isatin Sulfonamide Molecular Hybrid Derivatives against Hepatic Cancer Cell Lines” (Biomedicines, 2022).

“And” between values parts separate entries of the source, which are not always exact repeats. Equal values may be shown once. Marks after values point to notes of the source that are not given here.

For orientation: IC50 means the concentration at which inhibition is half-maximal.

Consider `Cc1ccc(C(=O)CC2(O)C(=O)Nc3ccc(S(=O)(=O)N4CCCCC4)cc32)cc1` (stereo not drawn) [Compound 3a, 3-hydroxy-3-(2-oxo-2-(p-tolyl)ethyl)-5-(piperidin-1-ylsulfonyl)indolin-2-one], for which, in the test with Huh7 cells, the “% Death Rate at 100 p.p.m (μg/mL) Huh7” value is 100 * % and the concentration for half-maximal inhibition (IC50) amounted to 40 ± 2.2 µM. For the same molecule, in the test on HepG2 cells [1], the “%Cell Cycle Arrest/Phase %G0-G1” value amounted to 31.57%, the “%Cell Cycle Arrest/Phase %G2-M” value is 44.85%, the “%Cell Cycle Arrest/Phase %S” value amounted to 23.58% and the “%Cell Cycle Arrest/Phase %pre-G1” value came to 46.29%. Besides, the “G2-M arrest, fold higher compared to the negative control” value in the test on HepG2 cells [1] is recorded as 6.32 fold. In addition, in the test on HepG2 cells [2], the “%Cell Death Early Apoptosis” value is listed as 3.56%; the “%Cell Death Late Apoptosis” value is reported as 29.58%; the “%Cell Death Total Apoptosis” value was 46.3% and 46.29%; the Necrosis is 13.15%. Besides, the “Total apoptosis, fold greater than negative control HepG2 cells” value in the test with HepG2 cells [2] (HepG2, negative control 1.47%) is 31.49 fold. The “uPA level in cell lysate” value in test [3] is 1258 ± 15 nmol/mg protein and 1258 ± 15 ^a* nmol/mg protein. Besides, the “Heparanase level in cell lysate” value with heparanase was 1262 ± 35 pmol/mg protein and 1262 ± 35 ^a*^,b* pmol/mg protein. The “MDA level in cell lysate” value in the test on malonaldehyde (MDA) was 2.0 ± 0.5 µmol/mg protein and 2.0 ± 0.5 ^a*^,b* µmol/mg protein.
On to `CC(=O)Nc1ccc(C(=O)C=C2C(=O)Nc3ccc(S(=O)(=O)N4CCCCC4)cc32)cc1` [Compound 4b, N-(4-(2-(2-oxo-5-(piperidin-1-ylsulfonyl)indolin-3-ylidene)acetyl)phenyl)acetamide], for which, in the test with Huh7 cells, the “% Death Rate at 100 p.p.m (μg/mL) Huh7” value is 76.00 * % and the IC50 turned out to be 53 ± 3 µM. Besides, in the test on HepG2 cells [1], the “%Cell Cycle Arrest/Phase %G0-G1” value was determined as 41.25%, the “%Cell Cycle Arrest/Phase %G2-M” value is reported as 5.49%, the “%Cell Cycle Arrest/Phase %S” value amounted to 53.26% and the “%Cell Cycle Arrest/Phase %pre-G1” value is on record as 28.14%. Further, in the test on HepG2 cells [2], the “%Cell Death Early Apoptosis” value amounted to 6.12%; the “%Cell Death Late Apoptosis” value is on record as 12.61%; the “%Cell Death Total Apoptosis” value is 28.1% and 28.14%; the Necrosis is listed as 9.41%. Also, the “uPA level in cell lysate” value in test [3] was 1916 ± 40 nmol/mg protein and 1916 ± 40 ^a*^,b* nmol/mg protein. In addition, the “Heparanase level in cell lysate” value with heparanase is 1827 ± 30 pmol/mg protein and 1827 ± 30 ^a*^, b* pmol/mg protein. Moreover, in the test on malonaldehyde (MDA), the “MDA level in cell lysate” value was 3.7 ± 0.4 µmol/mg protein and 3.7 ± 0.4 ^a*^,b* µmol/mg protein.
On to `CC(=O)Nc1cccc(C(=O)C=C2C(=O)Nc3ccc(S(=O)(=O)N4CCCCC4)cc32)c1` [Compound 4c, N-(3-(2-(2-oxo-5-(piperidin-1-ylsulfonyl)indolin-3-ylidene)acetyl)phenyl)acetamide], for which, in the test with Huh7 cells, the “% Death Rate at 100 p.p.m (μg/mL) Huh7” value is reported as 75.60 * % and the concentration for half-maximal inhibition (IC50) was found to be 35 ± 1.9 µM. For the same molecule, in the test on HepG2 cells [1], the “%Cell Cycle Arrest/Phase %G0-G1” value is reported as 36.44%, the “%Cell Cycle Arrest/Phase %G2-M” value is recorded as 37.62%, the “%Cell Cycle Arrest/Phase %S” value is 25.94% and the “%Cell Cycle Arrest/Phase %pre-G1” value was 32.02%. For the same molecule, the “G2-M arrest, fold higher compared to the negative control” value in the test on HepG2 cells [1] was found to be 5.30 fold. Also, in the test with HepG2 cells [2], the “%Cell Death Early Apoptosis” value was found to be 2.88%; the “%Cell Death Late Apoptosis” value came to 18.08%; the “%Cell Death Total Apoptosis” value is 32.0% and 32.02%; the Necrosis is given as 11.06%. The “uPA level in cell lysate” value in test [3] was 1729 ± 38 nmol/mg protein and 1729 ± 38 ^a*^,b* nmol/mg protein. For the same molecule, the “Heparanase level in cell lysate” value with heparanase was 1449 ± 12.5 pmol/mg protein and 1449 ± 12.5 ^a*^,b* pmol/mg protein. Besides, the “MDA level in cell lysate” value in the test with malonaldehyde (MDA) is 14.5 ± 1.4 µmol/mg protein.
With `COc1cccc2c1C(=O)c1c(O)c3c(c(O)c1C2=O)C[C@@](O)(C(=O)CO)C[C@@H]3O[C@H]1C[C@H](N)[C@H](O)[C@H](C)O1` [Doxorubicin, reference compound], in the test with Huh7 cells, the “% Death Rate at 100 p.p.m (μg/mL) Huh7” value came to 100% and the IC50 was 11.6 ± 0.9 µM. In the test on HepG2 cells [1], the “%Cell Cycle Arrest/Phase %G0-G1” value is listed as 29.74%, the “%Cell Cycle Arrest/Phase %G2-M” value is given as 39%, the “%Cell Cycle Arrest/Phase %S” value was found to be 31.26% and the “%Cell Cycle Arrest/Phase %pre-G1” value came out at 42.38%. Besides, in the test on HepG2 cells [2], the “%Cell Death Early Apoptosis” value is recorded as 1.85%, the “%Cell Death Late Apoptosis” value was 26.27%, the “%Cell Death Total Apoptosis” value is on record as 42.38% and the Necrosis is listed as 14.26%. Also, the “uPA level in cell lysate” value in test [3] (listed as Dox) is 1244 ± 18 nmol/mg protein. In test [3] (listed as Positive), the “uPA level in cell lysate” value was 1244 ± 18 ^a* nmol/mg protein. The “Heparanase level in cell lysate” value with heparanase is recorded as 902.1 ± 21 ^a* pmol/mg protein. For the same molecule, the “MDA level in cell lysate” value in the test with malonaldehyde (MDA) (listed as Dox) was determined as 18.5 ± 1.5 µmol/mg protein. For the same molecule, the “MDA level in cell lysate” value in the test with malonaldehyde (MDA) (listed as Positive) is recorded as 18.5 ± 1.5 ^a* µmol/mg protein.
